In ChEMBL document CHEMBL2169761, “Exploring the interactions of unsaturated glucuronides with influenza virus sialidase” (J Med Chem, 2012):

Experiments:
[1] = Inhibition of Influenza A virus sialidase N2
[2] = Inhibition of Influenza A virus sialidase N2 by fluorometric assay

Compound: CCC(CC)O[C@@H]1C=C(C(=O)O)C[C@H](O)[C@H]1NC(C)=O
- IC50 [1]: 15 nM

Compound: CCC(CC)O[C@@H]1OC(C(=O)O)=C[C@H](OC)[C@H]1NC(C)=O
- IC50 [2]: 1450 nM

Compound: CC(=O)N[C@H]1[C@H]([C@H](O)[C@H](O)CO)OC(C(=O)O)=C[C@@H]1N
- IC50 [2]: 680 nM

Compound: CCC(CC)O[C@@H]1OC(C(=O)O)=C[C@H](O)[C@H]1NC(C)=O
- IC50 [2]: 320 nM

Compound: CCO[C@H]1C=C(C(=O)O)O[C@@H]([C@H](O)[C@H](O)CO)[C@@H]1NC(C)=O
- IC50 [2]: 479000 nM

Compound: CC(=O)N[C@H]1[C@H]([C@H](O)[C@H](O)CO)OC(C(=O)O)=C[C@@H]1O [NEU5AC2EN]
- IC50 [1]: 1700 nM
- IC50 [2]: 10500 nM

Compound: C=C[C@H]1CC(C(=O)O)=C[C@@H](OC(C)C)[C@@H]1NC(C)=O
- Ki [1]: 45 nM

Compound: C/C=C\[C@@H]1C[C@H](C(=O)O)N[C@H]1[C@@H](NC(C)=O)[C@](C)(CCC)OC
- Ki [1]: 0.2 nM

Compound: CC(=O)N[C@H]1[C@H]([C@H](O)[C@H](O)CO)OC(C(=O)O)=C[C@@H]1NC(=N)N [ZANAMIVIR]
- IC50 [1]: 5 nM
- IC50 [2]: 12 nM

Compound: CCC(CC)O[C@@H]1OC(C(=O)O)=C[C@H](N)[C@H]1NC(C)=O
- IC50 [1]: 770 nM

Compound: C=CCO[C@H]1C=C(C(=O)O)O[C@@H](OC(CC)CC)[C@@H]1NC(C)=O
- IC50 [2]: 212000 nM

Compound: CCO[C@H]1C=C(C(=O)O)O[C@@H](OC(CC)CC)[C@@H]1NC(C)=O
- IC50 [2]: 28000 nM

Compound: CCC(CC)O[C@@H]1OC(C(=O)O)=C[C@H](OC(C)=O)[C@H]1NC(C)=O
- IC50 [2]: 5390 nM
